Data on two compounds can be found in ChEMBL document CHEMBL5647690, “Inhibition of demethylases by GSK-J1/J4” (Nature, 2014).

Test [1] has as its target Lysine-specific demethylase 5B (Homo sapiens, UniProt Q9UGL1). Briefly: Inhibition of KDM5B (1 to 809 residues)(unknown origin) by Alphalisa assay. Background: Bead proximity is the source of the signal in Alpha formats.
For test [2], the target named is Lysine-specific demethylase 5A (Homo sapiens, UniProt P29375). The experiment in a line: Inhibition of KDM5A (1 to 1090 residues)(unknown origin) by Alphalisa assay.
Lysine-specific demethylase 5A, sequence (P29375 whole entry, the tested form may be a part): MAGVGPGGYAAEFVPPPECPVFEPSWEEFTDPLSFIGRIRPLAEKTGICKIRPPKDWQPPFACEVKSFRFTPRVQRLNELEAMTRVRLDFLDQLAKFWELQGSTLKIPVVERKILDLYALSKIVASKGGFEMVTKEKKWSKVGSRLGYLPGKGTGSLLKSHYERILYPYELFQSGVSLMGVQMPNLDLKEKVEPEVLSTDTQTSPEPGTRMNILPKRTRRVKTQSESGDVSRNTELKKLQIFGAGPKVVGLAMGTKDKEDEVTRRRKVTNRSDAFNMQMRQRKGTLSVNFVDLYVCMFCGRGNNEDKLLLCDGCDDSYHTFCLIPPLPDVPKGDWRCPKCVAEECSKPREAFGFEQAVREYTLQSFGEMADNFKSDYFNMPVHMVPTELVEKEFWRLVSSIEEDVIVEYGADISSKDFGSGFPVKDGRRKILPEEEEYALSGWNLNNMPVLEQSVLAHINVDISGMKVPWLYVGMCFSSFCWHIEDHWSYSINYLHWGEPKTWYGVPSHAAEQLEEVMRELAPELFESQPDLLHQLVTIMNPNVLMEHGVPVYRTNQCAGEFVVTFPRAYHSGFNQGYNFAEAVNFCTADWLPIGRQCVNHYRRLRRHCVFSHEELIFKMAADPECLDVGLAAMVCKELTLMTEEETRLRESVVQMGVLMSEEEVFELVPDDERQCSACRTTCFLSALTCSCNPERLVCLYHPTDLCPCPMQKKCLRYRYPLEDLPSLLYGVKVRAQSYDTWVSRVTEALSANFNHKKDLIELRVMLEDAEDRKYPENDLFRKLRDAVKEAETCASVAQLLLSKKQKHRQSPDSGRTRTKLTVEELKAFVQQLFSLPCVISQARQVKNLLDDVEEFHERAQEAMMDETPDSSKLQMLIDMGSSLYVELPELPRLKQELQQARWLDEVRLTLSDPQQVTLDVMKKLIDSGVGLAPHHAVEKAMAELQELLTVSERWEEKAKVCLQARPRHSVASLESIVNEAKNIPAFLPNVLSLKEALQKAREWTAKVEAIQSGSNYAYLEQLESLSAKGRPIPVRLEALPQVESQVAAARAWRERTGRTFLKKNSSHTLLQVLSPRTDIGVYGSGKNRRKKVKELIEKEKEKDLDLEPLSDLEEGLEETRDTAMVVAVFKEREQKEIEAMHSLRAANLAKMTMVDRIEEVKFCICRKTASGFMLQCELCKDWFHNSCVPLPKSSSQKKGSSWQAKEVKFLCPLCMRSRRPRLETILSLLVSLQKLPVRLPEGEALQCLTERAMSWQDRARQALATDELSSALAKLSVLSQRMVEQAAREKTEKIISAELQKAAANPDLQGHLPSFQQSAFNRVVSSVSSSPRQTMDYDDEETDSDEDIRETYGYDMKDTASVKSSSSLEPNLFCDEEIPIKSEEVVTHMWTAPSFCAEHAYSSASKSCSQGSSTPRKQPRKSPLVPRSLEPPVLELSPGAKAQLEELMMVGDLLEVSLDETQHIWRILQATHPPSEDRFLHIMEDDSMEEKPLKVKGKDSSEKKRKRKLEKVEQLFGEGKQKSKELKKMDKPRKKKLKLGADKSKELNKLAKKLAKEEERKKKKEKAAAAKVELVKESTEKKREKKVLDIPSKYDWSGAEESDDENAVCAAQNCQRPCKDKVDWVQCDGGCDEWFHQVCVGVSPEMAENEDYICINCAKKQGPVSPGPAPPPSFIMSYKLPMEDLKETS
Test [3] addresses Lysine-specific demethylase 5C (Homo sapiens, UniProt P41229). Briefly: Inhibition of KDM5C (2 to 1560 residues)(unknown origin) by Alphalisa assay.
For test [4], the target named is T1, Lysine-specific demethylase 2B (Homo sapiens, UniProt Q8NHM5).
T1 sequence (Q8NHM5 whole entry): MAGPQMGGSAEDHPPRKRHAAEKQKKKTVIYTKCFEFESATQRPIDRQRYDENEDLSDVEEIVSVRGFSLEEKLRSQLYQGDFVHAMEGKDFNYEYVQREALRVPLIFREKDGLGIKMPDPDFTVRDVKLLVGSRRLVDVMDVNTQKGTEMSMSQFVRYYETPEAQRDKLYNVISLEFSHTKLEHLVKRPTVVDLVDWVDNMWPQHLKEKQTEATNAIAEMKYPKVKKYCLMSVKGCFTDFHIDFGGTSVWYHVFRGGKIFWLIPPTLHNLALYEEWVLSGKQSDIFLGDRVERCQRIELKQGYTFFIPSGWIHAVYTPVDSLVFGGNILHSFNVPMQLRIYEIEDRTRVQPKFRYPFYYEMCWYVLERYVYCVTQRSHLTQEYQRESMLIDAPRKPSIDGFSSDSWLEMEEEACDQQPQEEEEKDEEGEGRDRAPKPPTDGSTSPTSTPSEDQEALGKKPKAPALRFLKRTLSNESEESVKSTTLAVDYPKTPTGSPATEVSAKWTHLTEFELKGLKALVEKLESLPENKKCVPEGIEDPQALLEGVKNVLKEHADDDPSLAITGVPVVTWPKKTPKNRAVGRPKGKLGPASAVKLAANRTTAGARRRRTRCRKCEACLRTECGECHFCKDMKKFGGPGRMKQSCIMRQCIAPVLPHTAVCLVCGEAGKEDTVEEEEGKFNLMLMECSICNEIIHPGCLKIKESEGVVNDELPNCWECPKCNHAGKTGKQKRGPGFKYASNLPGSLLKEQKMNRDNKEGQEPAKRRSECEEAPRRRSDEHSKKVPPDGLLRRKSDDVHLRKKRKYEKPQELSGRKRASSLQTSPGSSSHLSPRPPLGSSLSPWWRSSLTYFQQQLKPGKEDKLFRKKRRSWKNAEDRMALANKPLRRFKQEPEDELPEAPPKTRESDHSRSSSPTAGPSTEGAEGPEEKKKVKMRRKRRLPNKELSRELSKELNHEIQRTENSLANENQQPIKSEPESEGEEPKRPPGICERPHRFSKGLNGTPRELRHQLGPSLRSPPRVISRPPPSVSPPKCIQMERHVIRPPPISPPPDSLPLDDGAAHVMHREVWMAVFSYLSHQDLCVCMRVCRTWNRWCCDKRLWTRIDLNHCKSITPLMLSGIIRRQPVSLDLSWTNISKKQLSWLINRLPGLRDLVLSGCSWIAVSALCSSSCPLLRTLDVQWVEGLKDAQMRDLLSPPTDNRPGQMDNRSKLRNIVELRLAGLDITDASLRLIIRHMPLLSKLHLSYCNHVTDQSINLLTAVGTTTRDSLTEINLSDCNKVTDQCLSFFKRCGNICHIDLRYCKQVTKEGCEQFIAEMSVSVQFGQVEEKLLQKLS
The experiment in a line: Inhibition of KDM2B (1 to 650 residues)(unknown origin) by Alphalisa assay.

The target in test [5] is Histone lysine demethylase PHF8 (Homo sapiens, UniProt Q9UPP1). Briefly: Inhibition of PHF8 (1 to 1024 residues)(unknown origin) by Alphalisa assay.
Histone lysine demethylase PHF8, sequence (Q9UPP1 whole entry, the tested form may be a part): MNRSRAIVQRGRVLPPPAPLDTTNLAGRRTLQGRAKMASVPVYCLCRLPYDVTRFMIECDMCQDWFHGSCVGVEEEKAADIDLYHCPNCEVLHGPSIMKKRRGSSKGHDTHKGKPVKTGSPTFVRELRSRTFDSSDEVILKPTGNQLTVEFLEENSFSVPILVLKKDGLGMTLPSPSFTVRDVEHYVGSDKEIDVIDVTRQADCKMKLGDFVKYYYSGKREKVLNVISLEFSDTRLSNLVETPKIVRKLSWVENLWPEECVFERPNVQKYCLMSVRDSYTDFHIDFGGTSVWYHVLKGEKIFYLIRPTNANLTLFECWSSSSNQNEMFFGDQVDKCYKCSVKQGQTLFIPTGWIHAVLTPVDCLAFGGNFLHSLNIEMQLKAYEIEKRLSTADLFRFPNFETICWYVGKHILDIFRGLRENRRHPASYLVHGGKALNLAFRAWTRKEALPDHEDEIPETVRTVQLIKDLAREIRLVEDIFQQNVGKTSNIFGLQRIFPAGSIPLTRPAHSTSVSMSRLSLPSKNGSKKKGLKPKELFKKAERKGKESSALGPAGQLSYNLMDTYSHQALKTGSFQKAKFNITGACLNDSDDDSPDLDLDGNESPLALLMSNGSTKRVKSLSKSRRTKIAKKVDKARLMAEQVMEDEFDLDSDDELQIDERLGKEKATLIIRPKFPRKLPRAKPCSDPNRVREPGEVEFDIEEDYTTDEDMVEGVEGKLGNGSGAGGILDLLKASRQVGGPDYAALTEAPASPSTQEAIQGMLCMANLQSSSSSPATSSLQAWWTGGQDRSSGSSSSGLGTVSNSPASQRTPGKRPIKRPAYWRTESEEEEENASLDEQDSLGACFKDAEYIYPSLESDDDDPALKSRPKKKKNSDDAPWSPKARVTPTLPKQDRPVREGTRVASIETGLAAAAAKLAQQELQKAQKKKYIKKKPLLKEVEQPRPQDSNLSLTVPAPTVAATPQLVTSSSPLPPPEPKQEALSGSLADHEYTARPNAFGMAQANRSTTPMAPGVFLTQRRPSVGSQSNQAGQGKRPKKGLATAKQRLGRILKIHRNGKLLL

Lysine-specific demethylase 5B, sequence (Q9UGL1 whole entry, the tested form may be a part): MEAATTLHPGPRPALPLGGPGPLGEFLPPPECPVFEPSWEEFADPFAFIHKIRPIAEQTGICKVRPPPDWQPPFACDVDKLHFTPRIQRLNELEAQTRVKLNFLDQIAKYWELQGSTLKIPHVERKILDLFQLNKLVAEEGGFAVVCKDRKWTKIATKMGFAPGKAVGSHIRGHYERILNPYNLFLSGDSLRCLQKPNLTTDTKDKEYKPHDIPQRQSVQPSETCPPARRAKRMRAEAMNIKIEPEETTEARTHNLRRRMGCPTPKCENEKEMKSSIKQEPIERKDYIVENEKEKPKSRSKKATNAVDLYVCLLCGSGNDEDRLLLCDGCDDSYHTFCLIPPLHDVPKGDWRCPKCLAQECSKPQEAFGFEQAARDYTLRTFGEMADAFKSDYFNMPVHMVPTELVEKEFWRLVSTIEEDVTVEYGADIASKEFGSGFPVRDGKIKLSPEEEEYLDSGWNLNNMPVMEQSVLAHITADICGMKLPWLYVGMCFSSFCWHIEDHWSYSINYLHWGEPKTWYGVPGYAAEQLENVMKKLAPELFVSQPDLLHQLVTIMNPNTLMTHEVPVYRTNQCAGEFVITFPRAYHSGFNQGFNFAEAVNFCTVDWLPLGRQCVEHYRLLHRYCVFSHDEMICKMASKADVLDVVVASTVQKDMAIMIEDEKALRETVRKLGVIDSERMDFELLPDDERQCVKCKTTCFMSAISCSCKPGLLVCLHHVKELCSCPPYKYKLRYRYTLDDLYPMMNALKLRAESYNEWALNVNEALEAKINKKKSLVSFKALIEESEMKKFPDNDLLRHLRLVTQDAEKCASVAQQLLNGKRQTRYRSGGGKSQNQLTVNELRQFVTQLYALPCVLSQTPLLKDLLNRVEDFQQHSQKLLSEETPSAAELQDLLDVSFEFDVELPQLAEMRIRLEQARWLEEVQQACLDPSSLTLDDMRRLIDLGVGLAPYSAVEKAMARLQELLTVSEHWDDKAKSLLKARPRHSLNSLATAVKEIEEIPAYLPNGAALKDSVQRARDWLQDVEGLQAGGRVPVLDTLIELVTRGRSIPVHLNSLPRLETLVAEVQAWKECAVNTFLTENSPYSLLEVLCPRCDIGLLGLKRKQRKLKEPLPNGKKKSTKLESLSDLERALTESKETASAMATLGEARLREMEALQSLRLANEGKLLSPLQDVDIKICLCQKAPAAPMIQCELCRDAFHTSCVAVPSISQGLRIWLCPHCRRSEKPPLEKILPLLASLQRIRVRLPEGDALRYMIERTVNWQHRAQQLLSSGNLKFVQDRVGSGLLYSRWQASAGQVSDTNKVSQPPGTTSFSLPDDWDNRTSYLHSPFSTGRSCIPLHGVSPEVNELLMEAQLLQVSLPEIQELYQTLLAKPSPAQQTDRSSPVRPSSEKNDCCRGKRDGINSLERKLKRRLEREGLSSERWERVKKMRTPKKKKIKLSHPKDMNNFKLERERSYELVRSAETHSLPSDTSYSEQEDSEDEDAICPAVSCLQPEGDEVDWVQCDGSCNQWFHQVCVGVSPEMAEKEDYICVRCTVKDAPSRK

Take `O=C(O)CCNc1cc(N2CCc3ccccc3CC2)nc(-c2cccnc2)n1`: the IC50 in test [1] was 33 µM; in test [2], above 20 µM; in test [3], above 75 µM; in test [4], 8.3 µM; in test [5] it was 17 µM.
As to `CCOC(=O)CCNc1cc(N2CCc3ccccc3CC2)nc(-c2cccnc2)n1`, the half-inhibitory concentration (IC50) is above 25 µM in test [1], above 50 µM in test [2], 24 µM in test [4] and above 25 µM in test [5].

As a reminder, the IC50 is the concentration at which inhibition is half-maximal. A low value points to greater potency.
